One experiment deals with P falciparum strain 3D7. In words: microbe, parasite or virus in culture. It counts as cell-based, Plasmodium falciparum. As to the method:
P falciparum strain 3D7 (wild-type, WT) was obtained through MR4 as part of the BEi Resources Repository, NIAID, NIH (www.mr4.org). AP falciparum strain containing increased levels of MEP pathway metabolites, had]
(MRA-1257), and its isogenic compliment, had]+ Pfl-Iadl-GFP (MRA-1258), were generated in strain 3D7, as reported (Guggisberg et al.). Parasites were cultured in a 2% suspension of human erythrocytes and RPMI 1640 (Sigma) medium supplemented with 27 mM sodium bicarbonate, 11 mM glucose, 5 mM HEPES, I mM sodium pyruvate, 0.37 mM hypoxanthine, 0.01 mM thymidine, 10 μg/mL gentamicin, and 0.5% Albumax (Gibco) at 37° C., 5% 02/5% CO2/90% N2 atmosphere.

Experiment [1] deals with T1, P. falciparum DXR (Plasmodium falciparum, UniProt Q8IKG4).
T1 construct: His6 (N); made in house; host or cells: Escherichia coli Rosetta2(DE3)
T1 sequence (Q8IKG4 73-488): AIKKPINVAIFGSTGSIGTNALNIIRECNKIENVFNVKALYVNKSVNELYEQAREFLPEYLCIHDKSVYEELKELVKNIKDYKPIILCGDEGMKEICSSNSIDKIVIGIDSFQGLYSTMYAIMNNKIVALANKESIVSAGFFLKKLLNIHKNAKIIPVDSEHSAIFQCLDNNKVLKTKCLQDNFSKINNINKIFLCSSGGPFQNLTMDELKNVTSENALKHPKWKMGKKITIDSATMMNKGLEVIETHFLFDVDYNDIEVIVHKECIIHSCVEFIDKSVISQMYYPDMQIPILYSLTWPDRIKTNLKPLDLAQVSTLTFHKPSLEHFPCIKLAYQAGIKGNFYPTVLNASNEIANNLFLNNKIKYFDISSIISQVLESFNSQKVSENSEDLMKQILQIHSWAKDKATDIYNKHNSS
Conditions: background statement; cited from earlier work.

The target of experiment [2] is T1, P. falciparum DXR. In words: Plasmodium falciparum DXR enzyme IC50. It counts as biochemical. As to the method: Recombinant protein was expressed in Escherichia coli Rosetta2(DE3) cells obtained from Novagen (San Diego, CA). E. coli was cultured at 37° C. in Luria-Bertani (LB) media supplemented with 100 μg/mL ampicillin and 34 μg/ml chloramphenicol with constant shaking at 250 rpm. Agar (1.5% wt/vol) was added to prepare solid media.
Cloning. Expression, and Purification of P falciparum DXR
The P falciparum dxr gene was truncated to begin at Lys 75 to remove the apicoplast signaling sequence. A Pf 3D7 trophozoite cDNA library (MRA-297) was acquired from BEi resources and used as the template for amplification of the PIDXR gene. […] 3′ reverse and cloned into a pETl 00/D-TOPO vector to yield pPIDXR, facilitating the expression of an N-terminal His6-tagged protein.
The expression plasmid (pPIDXR) was separately transformed into chemically competent E. coli Rosetta2(DE3) cells for protein expression. To express the His-tagged protein, a 10 mL overnight seed culture was added to IL of LB media and then incubated with shaking at 37° C. and 250 rpm. At an OD600 of 1.8, protein expression was induced with addition of isopropyl b-D-thiogalactopyranoside (IPTG) to 0.5 mM and the culture was further incubated with shaking at 37° C. and 250 rpm for an additional 18 hours. Cells were harvested via centrifugation (4648×g, 20 min, 4° C.) and stored at −80° C. Protein was subsequently isolated and purified from the cells via chemical lysis and affinity chromatography.
Cells were lysed with lysis buffer A (100 mM Tris pH 8.0, 0.032% lysozyme, 3 mL per gram cell pellet), followed by lysis buffer B (0.1 M CaCh, 0.1 M MgCh, 0.1 M NaCl, 0.020% DNase, 0.3 mL per gram cell pellet).
The column was washed with 20 column volumes of Ix equilibrium buffer (50 mM HEPES pH 7.5, 300 mM NaCl), 10 column volumes of Ix wash buffer (50 mM HEPES pH 7.5, 300 mM NaCl, 10 mM imidazole), and 15 column volumes of 2× wash buffer (100 mM HEPES pH 7.5, 600 mM NaCl, 20 mM imidazole). The protein was eluted with 5 column volumes of Ix elution buffer (150 mM imidazole pH 7.0, 300 mM NaCl). Buffer was exchanged with 0.1 M Tris pH 7.5, I mM NaCl, 5 mM DTT during concentration by ultrafiltration. Protein concentration was determined using Advanced Protein Assay Reagent (Cytoskeleton, Denver CO) with y-globulins (Sigma-Aldrich) as the standard. Purified protein was visualized via Coomassie stained SDS-PAGE.

The mark [3] stands for this setting: whole cell, read-out: P. f. IC50.
[4] abbreviates: recombinant His-tagged enzyme, read-out: P. f. DXR IC50.
[5] abbreviates: Plasmodium falciparum, 3D7, read-out: P. f. IC50.

In patent US20240239821A1, “N-ACYL FOSMIDOMYCIN PRODRUG ANALOGS AS NOVEL ANTIINFECTIVE AGENTS” (THE GEORGE WASHINGTON UNIVERSITY, priority 2021, published 2024) one finds IC50 data, which are given here for 27 compounds.

The structures appear in SMILES notation. Where two headings read alike, the source gives them in different places.

Consider `CC(=O)N(O)C/C=C/P(=O)(OCOC(=O)c1ccccc1)OCOC(=O)c1ccccc1` [BOM, CH3], for which, in the experiment with P falciparum strain 3D7 (setting [3]), the concentration for half-maximal inhibition (IC50) was determined as 11 nM.

As for `O=CN(O)C/C=C/P(=O)(OCOC(=O)c1ccccc1)OCOC(=O)c1ccccc1` [BOM, H], in the experiment on P falciparum strain 3D7 (setting [3]), the IC50 came out at 42 nM.

Regarding `O=C(OCOP(=O)(/C=C/CN(O)C(=O)c1ccccc1)OCOC(=O)c1ccccc1)c1ccccc1` [BOM, phenyl, [({[(E)-benzoyloxy]methoxy}[(1E)-3-(N-hydroxy-1-phenylformamido)prop-1-en-1-yl]phosphoryl)oxy]methyl benzoate], the 50% inhibitory concentration (IC50) with P falciparum strain 3D7 (setting [3]) was 297 nM.

Take `CC(=O)N(O)CCCP(=O)(O)O` [FR900098]: the IC50 at P. falciparum DXR [1] is 24 nM.

For the compound `O=C(c1ccc(Cl)c(Cl)c1)N(O)C/C=C/P(=O)(O)O` [NH4,3,4-dichlorophenyl], the 50% inhibitory concentration (IC50) in the experiment with P falciparum strain 3D7 (setting [3]) is 129 nM.

Turning to `O=C(c1cc(Cl)cc(Cl)c1)N(O)C/C=C/P(=O)(O)O` [NH4,3,5-dichlorophenyl], the IC50 with P falciparum strain 3D7 (setting [3]) is 218 nM.

In the case of `O=C(c1cccc(Cl)c1)N(O)C/C=C/P(=O)(O)O` [NH4,3-chlorophenyl], in the experiment with P falciparum strain 3D7 (setting [3]), the half-maximal inhibitory concentration (IC50) worked out at 116 nM.

Consider `O=C(c1cccc(F)c1)N(O)C/C=C/P(=O)(O)O` [NH4,3-fluorophenyl], for which, in the experiment on P falciparum strain 3D7 (setting [3]), the concentration for half-maximal inhibition (IC50) was 352 nM.

Turning to `O=C(c1cccc(C(F)(F)F)c1)N(O)C/C=C/P(=O)(O)O` [NH4,3-trifluoromethylphenyl], the half-maximal inhibitory concentration (IC50) at P. falciparum DXR [2] (setting [4]) is 49 nM.

As to `O=C(c1ccc(F)cc1)N(O)C/C=C/P(=O)(O)O` [NH4,4-fluorophenyl], the concentration for half-maximal inhibition (IC50) in the experiment on P falciparum strain 3D7 (setting [3]) came to 173 nM; on P. falciparum DXR [2] (setting [4]), 38 nM.

For the compound `COc1ccc(C(=O)N(O)C/C=C/P(=O)(O)O)cc1` [NH4,4-methoxyphenyl], the half-maximal inhibitory concentration (IC50) in the experiment on P falciparum strain 3D7 (setting [3]) is 632 nM.

As to `O=C(c1ccncc1)N(O)C/C=C/P(=O)(O)O` [NH4,4-pyridinyl], in the experiment with P falciparum strain 3D7 (setting [3]), the 50% inhibitory concentration (IC50) was 5390 nM.

Take `O=C(c1ccccc1)N(O)C/C=C/P(=O)(O)O` [NH4, phenyl, Diammonium [(1E)-3-(N-hydroxy-1-phenylformamido)prop-1-en-1-yl]phosphonate]: the results for the IC50 with P falciparum strain 3D7 (setting [5]) and at P. falciparum DXR [2] were 273 nM and 81 nM, respectively.

`O=C(c1cccc2ccccc12)N(O)C/C=C/P(=O)(O)O` [Na/H, 1-naphthyl]: the half-maximal inhibitory concentration (IC50) worked out at 5480 nM with P falciparum strain 3D7 (setting [3]) and 1800 nM at P. falciparum DXR [2] (setting [4]).

`O=C(c1ccc2ccccc2c1)N(O)C/C=C/P(=O)(O)O` [Na/H, 2-naphthyl]: the IC50 was found to be 1620 nM with P falciparum strain 3D7 (setting [3]) and 471 nM at P. falciparum DXR [2] (setting [4]).

As to `O=C(c1cc(Cl)cc(Cl)c1)N(O)C/C=C/P(=O)(O)O` [Na/H, 3,5-dichlorophenyl, Sodium hydrogen [(1E)-3-[1-(3,5-dichlorophenyl)—N-hydroxyformamido]prop-1-en-1-yl]phosphonate], the half-inhibitory concentration (IC50) with P falciparum strain 3D7 (setting [5]) was determined as 170 nM; at P. falciparum DXR [2] it was 64 nM.

Consider `O=C(c1cccc(Cl)c1)N(O)C/C=C/P(=O)(O)O` [Na/H, 3-chlorophenyl], for which the concentration for half-maximal inhibition (IC50) with P falciparum strain 3D7 (setting [3]) is 279 nM; on P. falciparum DXR [2] (setting [4]) it was 158 nM.

Take `O=C(c1cccc(C(F)(F)F)c1)N(O)C/C=C/P(=O)(O)O` [Na/H, 3-trifluoromethylphenyl]: the IC50 in the experiment with P falciparum strain 3D7 (setting [3]) turned out to be 188 nM; on P. falciparum DXR [2] (setting [4]) it was 48 nM.

Regarding `O=C(c1ccc(-c2ccccc2)cc1)N(O)C/C=C/P(=O)(O)O` [Na/H, 4-biphenyl], the IC50 in the experiment on P falciparum strain 3D7 (setting [3]) was 4380 nM; on P. falciparum DXR [2] (setting [4]), 290 nM.

For `O=C(c1ccc(F)cc1)N(O)C/C=C/P(=O)(O)O` [Na/H, 4-fluorophenyl], the results for the half-maximal inhibitory concentration (IC50) in the experiment with P falciparum strain 3D7 (setting [3]) and on P. falciparum DXR [2] (setting [4]) were 121 nM and 41 nM, respectively.

As for `Cc1ccc(C(=O)N(O)C/C=C/P(=O)(O)O)cc1` [Na/H, 4-methylphenyl], the IC50 with P falciparum strain 3D7 (setting [3]) is 1390 nM; on P. falciparum DXR [2] (setting [4]), 164 nM.

Regarding `O=C(c1ccncc1)N(O)C/C=C/P(=O)(O)O` [Na/H, 4-pyridinyl], the results for the 50% inhibitory concentration (IC50) in the experiment on P falciparum strain 3D7 (setting [3]) and at P. falciparum DXR [2] (setting [4]) were 6520 nM and 519 nM, respectively.

With `CC(C)(C)c1ccc(C(=O)N(O)C/C=C/P(=O)(O)O)cc1` [Na/H, 4-t-butylphenyl], the IC50 was determined as 43700 nM in the experiment with P falciparum strain 3D7 (setting [3]) and 37900 nM at P. falciparum DXR [2] (setting [4]).

`O=C(c1ccc(C(F)(F)F)cc1)N(O)C/C=C/P(=O)(O)O` [Na/H, 4-trifluoromethylphenyl]: the values for the concentration for half-maximal inhibition (IC50) in the experiment with P falciparum strain 3D7 (setting [3]) and on P. falciparum DXR [2] (setting [4]) were 2500 nM and 146 nM, respectively.

For the compound `CC(=O)N(O)C/C=C/P(=O)(OCOC(=O)C(C)(C)C)OCOC(=O)C(C)(C)C` [POM, CH3], in the experiment on P falciparum strain 3D7 (setting [3]), the half-maximal inhibitory concentration (IC50) turned out to be 18 nM.

Turning to `CC(C)(C)C(=O)OCOP(=O)(/C=C/CN(O)C=O)OCOC(=O)C(C)(C)C` [POM, H], the IC50 in the experiment with P falciparum strain 3D7 (setting [3]) came to 13 nM.

`CC(C)(C)C(=O)OCOP(=O)(C/C=C/N(O)C(=O)c1ccccc1)OCOC(=O)C(C)(C)C` [POM, phenyl, (E)-(((3-(N-hydroxybenzamido)allyl)phosphoryl)bis(oxy))bis(methylene)bis(2,2-dimethylpropanoate)]: in the experiment with P falciparum strain 3D7 (setting [3]), the IC50 stood at 200 nM.

Usually IC50 stands for the concentration at which inhibition is half-maximal.
